Data as given in patent US4465672A, “Stable S-adenosylmethionine salts, the process for their preparation, and therapeutic compositions which contain them as active principle” (Bioresearch S.p.A., priority 1981, dated 1984).
Read-outs that look alike come from different tables or passages of the source.

Tests used:
[1] = Residual moisture of the lyophilised salt; assay type: physicochemical
physchem = conditions: for DEGRADATION AT 45° C. AFTER 60 days: 1440 h; for DEGRADATION AT 45° C. AFTER 120 days: 2880 h; for DEGRADATION AT 45° C. AFTER 180 days: 4320 h; for DEGRADATION AT 45° C. AFTER 240 days: 5760 h; for DEGRADATION AT 45° C. AFTER 360 days: 8640 h
Method: The residual SAM percentage at the times indicated was determined by the new method described hereinafter, which ensures maximum accuracy of measurements in that it enables the SAM to be totally separated from all possible degradation products. The present method for determining the SAM is based on the use of HPLC.

[2] = Wide pharmacological screening trial; conditions: independent of the anion bonded to the SAM
[3] = prior art salts, cited from earlier work

## C[S+](CCC(N)C(=O)[O-])CC1OC(n2cnc3c(N)ncnc32)C(O)C1O (stereo not drawn) [SAM.1.5 H2 SO4.n CH3 SO3 H, n=1]
[1]; Tables 1 to 4
  residual moisture: 1%

## C[S+](CCC(N)C(=O)[O-])CC1OC(n2cnc3c(N)ncnc32)C(O)C1O (stereo not drawn) [SAM.1.5 H2 SO4.n CH3 SO3 H, n=2]
[1]; Tables 1 to 4
  residual moisture: 1.5%

## C[S+](CCC(N)C(=O)[O-])CC1OC(n2cnc3c(N)ncnc32)C(O)C1O (stereo not drawn) [SAM.1.5 H2 SO4.n CH3 SO3 H, n=3]
[1]; Tables 1 to 4
  residual moisture: 2%

## C[S+](CCC(N)C(=O)[O-])CC1OC(n2cnc3c(N)ncnc32)C(O)C1O (stereo not drawn) [SAM.5CH3 --C6 H4 --SO3 H]
[1]; Tables 1 to 4, n=5
  residual moisture: 1.5%

## C[S+](CCC(N)C(=O)[O-])CC1OC(n2cnc3c(N)ncnc32)C(O)C1O (stereo not drawn) [SAM.5CH3 SO3 H]
physchem; DEGRADATION AT 45° C. AFTER 360 DAYS
  degraded at 8640 h: 5%
[2]
  activity and toxicity characteristics: highly interesting activity and toxicity characteristics
[1]; Tables 1 to 4, listed as SAM.n CH3 SO3 H, n=5
  residual moisture: 1.5%
[1]; with or without lyophilisation support (Tables 5, 6)
  residual moisture: 1.5%

## C[S+](CCC(N)C(=O)[O-])CC1OC(n2cnc3c(N)ncnc32)C(O)C1O (stereo not drawn) [SAM.n CH3 SO3 H, n=1]
physchem
  DEGRADATION AT 45° C. AFTER 60 days: 100%
  DEGRADATION AT 45° C. AFTER 120 days: 100%
  DEGRADATION AT 45° C. AFTER 180 days: 100%
  DEGRADATION AT 45° C. AFTER 240 days: 100%
  DEGRADATION AT 45° C. AFTER 360 days: 100%
[1]; Tables 1 to 4
  residual moisture: 0.2%

## C[S+](CCC(N)C(=O)[O-])CC1OC(n2cnc3c(N)ncnc32)C(O)C1O (stereo not drawn) [SAM.n CH3 SO3 H, n=2]
physchem
  DEGRADATION AT 45° C. AFTER 120 days: 100%
  DEGRADATION AT 45° C. AFTER 180 days: 100%
  DEGRADATION AT 45° C. AFTER 240 days: 100%
  DEGRADATION AT 45° C. AFTER 360 days: 100%
[1]; Tables 1 to 4
  residual moisture: 0.5%

## C[S+](CCC(N)C(=O)[O-])CC1OC(n2cnc3c(N)ncnc32)C(O)C1O (stereo not drawn) [SAM.n CH3 SO3 H, n=3]
physchem
  DEGRADATION AT 45° C. AFTER 240 days: 100%
  DEGRADATION AT 45° C. AFTER 360 days: 100%
[1]; Tables 1 to 4
  residual moisture: 0.8%

## C[S+](CCC(N)C(=O)[O-])CC1OC(n2cnc3c(N)ncnc32)C(O)C1O (stereo not drawn) [SAM.n CH3 SO3 H, n=4]
[1]; Tables 1 to 4
  residual moisture: 1%

## C[S+](CCC(N)C(=O)[O-])CC1OC(n2cnc3c(N)ncnc32)C(O)C1O (stereo not drawn) [SAM.n CH3 SO3 H, n=6]
[1]; Tables 1 to 4
  residual moisture: 2%

## C[S+](CCC(N)C(=O)[O-])CC1OC(n2cnc3c(N)ncnc32)C(O)C1O (stereo not drawn) [disulphatediparatoluene sulphonate, reference compound]
[3]
  temperature up to which the salt is stable: up to 45 °C

## C[S+](CCC(N)C(=O)[O-])CC1OC(n2cnc3c(N)ncnc32)C(O)C1O (stereo not drawn) [drawing 5, n=1]
physchem
  DEGRADATION AT 45° C. AFTER 60 days: 100%
  DEGRADATION AT 45° C. AFTER 120 days: 100%
  DEGRADATION AT 45° C. AFTER 180 days: 100%
  DEGRADATION AT 45° C. AFTER 240 days: 100%
  DEGRADATION AT 45° C. AFTER 360 days: 100%
[1]; Tables 1 to 4
  residual moisture: 0.2%

## C[S+](CCC(N)C(=O)[O-])CC1OC(n2cnc3c(N)ncnc32)C(O)C1O (stereo not drawn) [drawing 5, n=2]
physchem
  DEGRADATION AT 45° C. AFTER 120 days: 100%
  DEGRADATION AT 45° C. AFTER 180 days: 100%
  DEGRADATION AT 45° C. AFTER 240 days: 100%
  DEGRADATION AT 45° C. AFTER 360 days: 100%
[1]; Tables 1 to 4
  residual moisture: 0.5%

## C[S+](CCC(N)C(=O)[O-])CC1OC(n2cnc3c(N)ncnc32)C(O)C1O (stereo not drawn) [drawing 5, n=3]
[3]; listed as triparatoluene sulphonate
  temperature up to which the salt is stable: up to 25 °C
physchem
  DEGRADATION AT 45° C. AFTER 240 days: 100%
  DEGRADATION AT 45° C. AFTER 360 days: 100%
[1]; Tables 1 to 4
  residual moisture: 0.8%

## C[S+](CCC(N)C(=O)[O-])CC1OC(n2cnc3c(N)ncnc32)C(O)C1O (stereo not drawn) [drawing 5, n=4]
[1]; Tables 1 to 4
  residual moisture: 1%

## C[S+](CCC(N)C(=O)[O-])CC1OC(n2cnc3c(N)ncnc32)C(O)C1O (stereo not drawn) [drawing 5, n=6]
[1]; Tables 1 to 4
  residual moisture: 2%

## C[S+](CCC(N)C(=O)[O-])CC1OC(n2cnc3c(N)ncnc32)C(O)C1O (stereo not drawn) [drawing 6, n=1]
[1]; Tables 1 to 4
  residual moisture: 1%

## C[S+](CCC(N)C(=O)[O-])CC1OC(n2cnc3c(N)ncnc32)C(O)C1O (stereo not drawn) [drawing 6, n=2]
[1]; Tables 1 to 4
  residual moisture: 1.5%

## C[S+](CCC(N)C(=O)[O-])CC1OC(n2cnc3c(N)ncnc32)C(O)C1O (stereo not drawn) [drawing 6, n=3]
[1]; Tables 1 to 4
  residual moisture: 2%
